Reference: US6737383B1, “Herbicidal oxadiazolidines” (priority 1999, dated 2004)

Key:
rape = assay: Test B pre/postemergence rape; assay type: in vivo, Brassica napus
Method in brief: (§1)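 Test chemicals in a non-phytotoxic solvent mixture with surfactant were sprayed preemergence onto planted seeds and postemergence onto plants 2 to 18 cm tall (1- to 4-leaf stage). After twelve to sixteen days in a greenhouse, injury was visually rated against untreated controls from 0 (no effect) to 10 (complete control).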

bedstraw = assay: Test B pre/postemergence bedstraw; assay type: in vivo, Galium aparine
Method in brief: as §1

giant foxtail = assay: Test B pre/postemergence giant foxtail; assay type: in vivo, Setaria faberii
Method in brief: as §1

pigweed = assay: Test B pre/postemergence pigweed; assay type: in vivo, Amaranthus retroflexus
Method in brief: as §1

corn = assay: Test B pre/postemergence corn; assay type: in vivo, Zea mays
Method in brief: as §1

crabgrass = assay: Test B pre/postemergence crabgrass; assay type: in vivo, Digitaria sanguinalis
Method in brief: as §1

soybean = assay: Test B pre/postemergence soybean; assay type: in vivo, Glycine max
Method in brief: as §1

velvetleaf = assay: Test B pre/postemergence velvetleaf; assay type: in vivo, Abutilon theophrasti
Method in brief: as §1

morningglory = assay: Test B pre/postemergence morningglory; assay type: in vivo, Ipomoea hederacea
Method in brief: as §1

purple nutsedge = assay: Test B pre/postemergence purple nutsedge; assay type: in vivo, Cyperus rotundus
Method in brief: as §1

wild oat = assay: Test B pre/postemergence wild oat; assay type: in vivo, Avena fatua
Method in brief: as §1

blackgrass = assay: Test B pre/postemergence blackgrass; assay type: in vivo, Alopecurus myosuroides
Method in brief: as §1

surinam grass = assay: Test B pre/postemergence surinam grass; assay type: in vivo, Brachiaria decumbens
Method in brief: as §1

wheat = assay: Test B pre/postemergence wheat; assay type: in vivo, Triticum aestivum
Method in brief: as §1

cocklebur = assay: Test B pre/postemergence cocklebur; assay type: in vivo, Xanthium strumarium
Method in brief: as §1

[1] = Preemergence, Rate 62 g/ha, scale of 0 to 10 where 0 is no effect and 10 is complete control
[2] = Preemergence, Rate 250 g/ha, scale of 0 to 10 where 0 is no effect and 10 is complete control
[3] = Preemergence, Rate 500 g/ha, scale of 0 to 10 where 0 is no effect and 10 is complete control
[4] = Rate 62 g/ha, Postemergence, scale 0 to 10 (0 no effect, 10 complete control)
[5] = Rate 125 g/ha, Postemergence, scale of 0 to 10 where 0 is no effect and 10 is complete control
[6] = Rate 250 g/ha, Postemergence, scale of 0 to 10 where 0 is no effect and 10 is complete control
[7] = Rate 500 g/ha, Postemergence, scale 0 to 10, 0 no effect, 10 complete control

CC(C)n1c(=O)on(C(=O)N(c2ccc(Cl)cc2Cl)C2CCC2)c1=O [Compound 319]
Rape plant response rating (rape; [1]): 0 | Rape plant response rating (0 to 10 scale) (rape; Preemergence, Rate 125 g/ha): 0 | Rape plant response rating (rape; [2]): 0 | Rape plant response rating (rape; [3]): 0 | Rape plant response rating (rape; [4]): 0 | Rape plant response rating (rape; [5]): 0 | Plant response rating, Rape (rape; [6]): 0 | Bedstraw plant response rating (bedstraw; [1]): 0 | Bedstraw plant response rating (0 to 10 scale) (bedstraw; Preemergence, Rate 125 g/ha): 0 | Bedstraw plant response rating (bedstraw; [2]): 0 | Bedstraw plant response rating (bedstraw; [3]): 7 | Bedstraw plant response rating (bedstraw; [4]): 0 | Bedstraw plant response rating (bedstraw; [5]): 0 | Giant foxtail plant response rating (giant foxtail; [1]): 6 | Giant foxtail plant response rating (0 to 10 scale) (giant foxtail; Preemergence, Rate 125 g/ha): 7 | Giant foxtail plant response rating (giant foxtail; [2]): 9 | Giant foxtail plant response rating (giant foxtail; [3]): 9 | Giant foxtail plant response rating (giant foxtail; [4]): 0 | Giant foxtail plant response rating (giant foxtail; [5]): 0 | Plant response rating, Giant foxtail (giant foxtail; [6]): 0 | Redroot pigweed plant response rating (pigweed; [1]): 0 | Redroot pigweed plant response rating (0 to 10 scale) (pigweed; Preemergence, Rate 125 g/ha): 0 | Redroot pigweed plant response rating (pigweed; [2]): 0 | Redroot pigweed plant response rating (pigweed; [3]): 0 | Redroot pigweed plant response rating (pigweed; [4]): 0 | Redroot pigweed plant response rating (pigweed; [5]): 0 | Plant response rating, Redroot pigweed (pigweed; [6]): 0 | Corn plant response rating (corn; [1]): 0 | Corn plant response rating (0 to 10 scale) (corn; Preemergence, Rate 125 g/ha): 0 | Corn plant response rating (corn; [2]): 0 | Corn plant response rating (corn; [3]): 0 | Corn plant response rating (corn; [4]): 0 | Corn plant response rating (corn; [5]): 0 | Plant response rating, Corn (corn; [6]): 0 | Corn plant response rating (corn; [7]): 0 | Crabgrass plant response rating (crabgrass; [1]): 0 | Crabgrass plant response rating (0 to 10 scale) (crabgrass; Preemergence, Rate 125 g/ha): 0 | Crabgrass plant response rating (crabgrass; [2]): 2 | Crabgrass plant response rating (crabgrass; [3]): 3 | Crabgrass plant response rating (crabgrass; [4]): 0 | Crabgrass plant response rating (crabgrass; [5]): 0 | Plant response rating, Crabgrass (crabgrass; [6]): 0 | Soybean plant response rating (soybean; [1]): 0 | Soybean plant response rating (0 to 10 scale) (soybean; Preemergence, Rate 125 g/ha): 0 | Soybean plant response rating (soybean; [2]): 0 | Soybean plant response rating (soybean; [3]): 0 | Soybean plant response rating (soybean; [4]): 0 | Soybean plant response rating (soybean; [5]): 1 | Plant response rating, Soybean (soybean; [6]): 1 | Velvetleaf plant response rating (velvetleaf; [1]): 0 | Velvetleaf plant response rating (0 to 10 scale) (velvetleaf; Preemergence, Rate 125 g/ha): 0 | Velvetleaf plant response rating (velvetleaf; [2]): 0 | Velvetleaf plant response rating (velvetleaf; [3]): 0 | Velvetleaf plant response rating (velvetleaf; [4]): 0 | Velvetleaf plant response rating (velvetleaf; [5]): 0 | Plant response rating, Velvetleaf (velvetleaf; [6]): 0 | Morningglory plant response rating (morningglory; [1]): 0 | Morningglory plant response rating (0 to 10 scale) (morningglory; Preemergence, Rate 125 g/ha): 0 | Morningglory plant response rating (morningglory; [2]): 0 | Morningglory plant response rating (morningglory; [3]): 0 | Morningglory plant response rating (morningglory; [4]): 2 | Morningglory plant response rating (morningglory; [5]): 2 | Plant response rating, Morningglory (morningglory; [6]): 4 | Nutsedge plant response rating (purple nutsedge; [1]): 0 | Nutsedge plant response rating (0 to 10 scale) (purple nutsedge; Preemergence, Rate 125 g/ha): 0 | Nutsedge plant response rating (purple nutsedge; [2]): 0 | Nutsedge plant response rating (purple nutsedge; [3]): 0 | Nutsedge plant response rating (purple nutsedge; [4]): 0 | Nutsedge plant response rating (purple nutsedge; [5]): 0 | Plant response rating, Nutsedge (purple nutsedge; [6]): 0 | Wild oats plant response rating (wild oat; [1]): 0 | Wild oats plant response rating (0 to 10 scale) (wild oat; Preemergence, Rate 125 g/ha): 0 | Wild oats plant response rating (wild oat; [2]): 0 | Wild oats plant response rating (wild oat; [3]): 0 | Wild oats plant response rating (wild oat; [4]): 0 | Wild oats plant response rating (wild oat; [5]): 0 | Plant response rating, Wild oats (wild oat; [6]): 0 | Blackgrass plant response rating (blackgrass; [1]): 0 | Blackgrass plant response rating (0 to 10 scale) (blackgrass; Preemergence, Rate 125 g/ha): 0 | Blackgrass plant response rating (blackgrass; [2]): 2 | Blackgrass plant response rating (blackgrass; [3]): 4 | Blackgrass plant response rating (blackgrass; [4]): 0 | Blackgrass plant response rating (blackgrass; [5]): 0 | Plant response rating, Blackgrass (blackgrass; [6]): 0 | Blackgrass plant response rating (blackgrass; [7]): 3 | B. signalgrass plant response rating (surinam grass; [1]): 0 | B. signalgrass plant response rating (0 to 10 scale, 0 is no effect, 10 is complete control) (surinam grass; Preemergence, Rate 125 g/ha): 0 | B. signalgrass plant response rating (surinam grass; [2]): 2 | B. signalgrass plant response rating (surinam grass; [3]): 3 | B. signalgrass plant response rating (surinam grass; [4]): 0 | B. signalgrass plant response rating (surinam grass; [5]): 0 | Plant response rating, B. signalgrass (surinam grass; [6]): 0 | B. signalgrass plant response rating (surinam grass; [7]): 0 | Wheat plant response rating (wheat; [1]): 0 | Wheat plant response rating (0 to 10 scale) (wheat; Preemergence, Rate 125 g/ha): 0 | Wheat plant response rating (wheat; [2]): 0 | Wheat plant response rating (wheat; [3]): 0 | Wheat plant response rating (wheat; [4]): 0 | Wheat plant response rating (wheat; [5]): 0 | Plant response rating, Wheat (wheat; [6]): 0 | Cocklebur plant response rating (cocklebur; [1]): 0 | Cocklebur plant response rating (0 to 10 scale) (cocklebur; Preemergence, Rate 125 g/ha): 0 | Cocklebur plant response rating (cocklebur; [2]): 0 | Cocklebur plant response rating (cocklebur; [3]): 0 | Cocklebur plant response rating (cocklebur; [4]): 0 | Cocklebur plant response rating (cocklebur; [5]): 0 | Plant response rating, Cocklebur (cocklebur; [6]): 0 | Cocklebur plant response rating (cocklebur; [7]): 0
